Consider 8 molecules from US12037327B2, “Compounds and methods targeting GPER for treatment of diseases associated with calcium” (Saint Louis University, priority 2018, dated 2024).

For one assay, the target named is T1, G protein-coupled estrogen receptor (GPER) (Homo sapiens, UniProt Q99527).
T1 construct: siRNA was used to knock-down expression of GPER; endogenous in cells; host or cells: HL-60 (human myelocytic leukemia) cells
T1 sequence (Q99527 whole entry): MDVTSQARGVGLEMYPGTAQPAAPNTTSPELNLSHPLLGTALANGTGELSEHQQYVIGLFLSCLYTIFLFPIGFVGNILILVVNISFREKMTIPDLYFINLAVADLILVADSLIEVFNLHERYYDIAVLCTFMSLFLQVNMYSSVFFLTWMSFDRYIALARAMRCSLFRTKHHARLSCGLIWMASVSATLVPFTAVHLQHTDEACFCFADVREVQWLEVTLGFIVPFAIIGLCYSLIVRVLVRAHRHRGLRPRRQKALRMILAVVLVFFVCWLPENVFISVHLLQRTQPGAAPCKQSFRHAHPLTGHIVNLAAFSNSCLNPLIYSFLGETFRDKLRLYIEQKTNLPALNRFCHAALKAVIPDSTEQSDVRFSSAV
Description: calcium mobilization assay in HL-60 cells (Indo-1AM). The following applies: triplicate runs on triplicate plates, read-out: EC50 (Ca^2+). The assay is classed as cell-based. On the procedure:
For the calcium mobilization studies, Human Myelocytic Leukemia (HL-60) cells were grown in phenol red free media containing 10% activated fetal bovine serum (FBS), 1% Pen-Strep, and 1% Glutamax. Cells were grown to no more than 1×10^6 cells/mL to prevent differentiation before being split. Prior to assay cells were transferred to phenol red free media containing charcoal-stripped FBS. On the day of the assay cells were centrifuged down at 16.4 G for 5 minutes and washed with 50:1 HBSS/HEPES. Cells were resuspended at 1×10^7 cells/mL in 50:1 HBSS/HEPES. To the resuspended cells, […] pluronic acid and 5 uM of fluorescent calcium indicator, Indo-1AM, were added. The dye solution was incubated for 0.5 hrs at room temperature with rocking. After 30 minutes cells were spun down, and resuspended in 50:1 HBSS/HEPES. Cells were placed on ice for at least 5 minutes and then resuspended in 8.5 mL of 50:1 HBSS/HEPES for agonism assays. For agonism assays 160 μL of cell suspension were added to a 96-well plate and were incubated at […] for 20 minutes in a FlexStation® 3 plate reader (Molecular Devices). Inside the plate reader, 40 μL of agonist were added to each well and excited with 350 nm and read at emissions of 405 nm and 490 nm.
(§1) Calcium mobilization signal was assessed with the use of 0.1% pluronic acid and 5 μM Indo-1AM, a ratiometric dye. The EC50 values were determined based upon triplicate runs on triplicate plates. […] Cyclic AMP formation through the Gi/o-pathway was monitored utilizing a homogenous time-resolved fluorescence assay purchased from CisBio. A triplicate was performed and an EC50 value was calculated. […] The EC50 values were determined based upon triplicate runs on a triplicate plates.
Take `CC(C)c1ccc(NCc2ccc(C3OCCO3)o2)c(C2CCCCC2)c1` [Compound 3]: the EC50 came to 94.4 ± 11.8 nM.
As to `CC(C)c1ccc(NCc2ccc(C3CCCCO3)o2)c(C2CCCCC2)c1` (stereo not drawn) [Compound 4], the EC50 was determined as 38.7 ± 12.9 nM.
For `CCOCc1ccc(CNc2ccc(C(C)C)cc2C2CCCCC2)o1` [Compound 5], the EC50 was 50.8 ± 5.81 nM.
Turning to `COc1ccc(CNc2ccc(C(C)C)cc2C2CCCCC2)cn1` [Compound 6], the concentration for a half-maximal effect (EC50) was 52.1 ± 12.1 nM.
The same measure, in the same setting: the value for `COCc1ccc(CNc2ccc(C(C)C)cc2C2CCCCC2)o1` [Compound 7] was 60.1 ± 18.2 nM.

The target in a further assay is T1, G protein-coupled estrogen receptor (GPER). Description: HTRF cAMP formation assay in HL-60 cells. The assay is classed as cell-based. To be noted: values with * unexplained. On the procedure: For cAMP formation studies to determine potentcy, a homogeneous time resolved fluorescence (HTRF®) components for cAMP was purchased by CisBio (Bedford, MA). HL-60 cells were grown in 10% charcoal-stripped RPMI media for 72 hours prior to assays. Cells were centrifuged and counted with a hemocytometer from Hausser Scientific (Horsham, PA). The total number of cells needed to complete the assay was determined based upon 8,000 cells/well. The determined number of cells was diluted in 5:1 (5×) stimulation buffer contain 500 μM of 3-isobutyl-1-methylxanthine (IBMX) (Sigma Aldrich, Saint Louis, MO). To an HTRF 96-well low volume white plate from CisBio, 2 μL of (5×) agonist was added to the designated wells, followed by 8 μL of col cell suspension. Two controls were run during the experiment to establish basal cAMP formation and […] cAMP with the use of 20 μM forskolin. Cells were covered with a clear plastic film and incubated at 37° C. for 15 mins. During the 15 minutes incubation a 4:1 solution of lysis buffer to dye was prepared individually. After the 15 minute incubation 5 μL of lysis buffer/cAMP-d2 (acceptor) and 5 μL of lysis buffer/monocolonal anti-cAMP Eu3^+ cryptate (donor) were added to all wells. Once added, the plate was sealed, covered with aluminum foil, and incubated at room temperature for 30 mins. After the allotted time cells were read using Flexstation3 and with λex 314 nm and λem 665 nm/λem 620. Antagonism assay format varied slightly. […] To the plate, 2 μL of (5×) antagonist were added dose wise followed by the addition of 6 μL of cold cell suspension to all wells. Controls from the agonism assay remained the same in the antagonism assay. Cells and antagonists were incubated for 20 minutes at 37° C. […] Similar to the agonism assay a 4:1 ratio of lysis buffer to donor/acceptor were prepared. Following the previous incubation period, 5 μL of lysis buffer/cAMP-d2 (acceptor) and 5 μL of lysis buffer/monocolonal anti-cAMP Eu3^+ cryptate (donor) were added to all wells. Cells were allowed to equilibrate at room temperature for 30 minutes before being read at λex 314 nm and λem 665 nm/λem 620.
as §1
Molecule `CC(C)c1ccc(NCc2ccc(C3OCCO3)o2)c(C2CCCCC2)c1` [Compound 3] displayed an EC50 of 948 ± 272 nM.
Still for that read-out and setting: the value for `CC(C)c1ccc(NCc2ccc(C3CCCCO3)o2)c(C2CCCCC2)c1` (stereo not drawn) [Compound 4] was 290 ± 58 nM.
Still for that read-out and setting: the value for `CCOCc1ccc(CNc2ccc(C(C)C)cc2C2CCCCC2)o1` [Compound 5] was 389 ± 61.6 nM; that for `COc1ccc(CNc2ccc(C(C)C)cc2C2CCCCC2)cn1` [Compound 6] was 1250 ± 304 nM.
On the same count and under the same terms, the value for `COCc1ccc(CNc2ccc(C(C)C)cc2C2CCCCC2)o1` [Compound 7] was 830 ± 273 nM.

In another assay the target is T2, GPER (Homo sapiens, UniProt Q99527).
T2 construct: siRNA was used to knock-down expression of GPER; endogenous in cells; host or cells: HL-60 (human myelocytic leukemia) cells
T2 sequence (Q99527 whole entry): as above
Put plainly: calcium mobilization assay, agonists tested against EC50 of GPER antagonist G-36. The following applies: agonist at 100 nM against EC50 of G-36; normalized. The assay is classed as cell-based. The protocol:
Each signal was normalized to the baseline signaling of G-36 and the maximum signal achieved by the specific agonist. Results are shown at 100 nM.
Calcium mobilization signal was assessed with the use of 0.1% pluronic acid and 5 μM Indo-1AM, a ratiometric dye. The EC50 values were determined based upon triplicate runs on triplicate plates. […] Cyclic AMP formation through the Gi/o-pathway was monitored utilizing a homogenous time-resolved fluorescence assay purchased from CisBio. A triplicate was performed and an EC50 value was calculated. […] The EC50 values were determined based upon triplicate runs on a triplicate plates. To confirm that calcium efflux originated from activation of the G protein-coupled estrogen receptor (GPER), a known selective antagonist, G-36 was used to antagonize the signal. […] Additional data can be found in FIG. 9. […] Without wishing to be bound by any theory, it is believed that within the new functionalization of the scaffold the lone pair on the oxygen of furfuran ring system and the nitrogen on pyridinyl ring system work to activate the receptor. […] Based upon neurite outgrowth studies and without wishing to be bound by any theory, it is believed that the compounds may aid in the elongation and connectivity of neurons. This has implication in a variety of neurodegenerative diseases, such as Alzheimer's disease and Parkinson's disease, but also psychiatric illnesses including Austism and Schizophrenia.
Consider `CC(C)c1ccc(NCc2ccc(C3OCCO3)o2)c(C2CCCCC2)c1` [Compound 3], for which the “change in calcium efflux in response to G-36” value is “significant reduction”.
Still for that read-out and setting: the value for `CC(C)c1ccc(NCc2ccc(C3CCCCO3)o2)c(C2CCCCC2)c1` (stereo not drawn) [Compound 4] was “significant reduction”.
The same measure, in the same setting: the value for `CCOCc1ccc(CNc2ccc(C(C)C)cc2C2CCCCC2)o1` [Compound 5] was “statistically significant decrease”; that for `COCc1ccc(CNc2ccc(C(C)C)cc2C2CCCCC2)o1` [Compound 7] was “statistically significant decrease”.

The same assay, now with this note: concentration not given.
As to `CCOCc1ccc(CNc2ccc(C(C)C)cc2C2CCCCC2)o1` [Compound 5], the “calcium signal when antagonized with G-36” value is on record as “reduced to basal response”.
Turning to `COCc1ccc(CNc2ccc(C(C)C)cc2C2CCCCC2)o1` [Compound 7], the “calcium signal when antagonized with G-36” value was “reduced to basal response”.

Another assay relates to E18 embryonic rat cortical neurons. Put plainly: neurite outgrowth in E18 embryonic rat neurons. The assay is classed as cell-based. To be noted: 100 nM agonist plus 100 nM G-15.
Regarding `CCOCc1ccc(CNc2ccc(C(C)C)cc2C2CCCCC2)o1` [Compound 5], the “neurite outgrowth with GPER antagonist G-15” value is “reduction in signal”.
As to `CC(C)c1ccc(NCc2ccoc2)c(C2CCCCC2)c1` [Compound 26], the “neurite outgrowth with GPER antagonist G-15” value is “significantly diminished”.
Same read-out and setting: the value for `CCOCc1ccc(CNc2ccc(C(C)C)cc2C2CCCCC2)o1` [Compound 37] was “significantly diminished”.
Still for that read-out and setting: the value for `CC(=O)c1ccc2c(c1)C1C=CCC1C(c1cc3c(cc1Br)OCO3)N2` (stereo not drawn) [Compound G-1, reference compound] was “reduction in signal”.

Still in this assay, the particulars now being: 100 nM agonist, 72 hours, compared to vehicle control.
`CCOCc1ccc(CNc2ccc(C(C)C)cc2C2CCCCC2)o1` [Compound 5]: the neurite outgrowth entry is on record as “statistically significant increase”.
`CC(C)c1ccc(NCc2ccoc2)c(C2CCCCC2)c1` [Compound 26]: the neurite outgrowth entry was “statistically significant increase”.
On the same count and under the same terms, the value for `CCOCc1ccc(CNc2ccc(C(C)C)cc2C2CCCCC2)o1` [Compound 37] was “statistically significant increase”; that for `CC(=O)c1ccc2c(c1)C1C=CCC1C(c1cc3c(cc1Br)OCO3)N2` (stereo not drawn) [Compound G-1, reference compound] was “statistically significant increase”.
